Source: article PMC7188728, “A phase I study investigation of metabolism, and disposition of [^14C]-anlotinib after an oral administration in patients with advanced refractory solid tumors” (Cancer Chemotherapy and Pharmacology, 2020)

Assay: Metabolite radio-profiling (LC-RAM, LC-MS/MS) of plasma, urine and feces
Assay type: in vivo, human
Conditions: pooled plasma 2–96 h, subjects 03–06
Description: An equal volume of 2, 4, 8, 12, 24, and 96 h plasma sample was pooled by time-point across subject 03 ~ 06, to give six pooled plasma samples for metabolite profiling. An appropriate volume (3x, v/v) of acetonitrile was added to a portion of the pooled plasma sample, followed by vortexing ca. 2 min. After storage in a refrigerator for ca. 30 min, the mixture was centrifuged at ca. 10000 g at 4 °C for 10 min. The supernatant was then separated from the PES, which was suspended with water, followed by addition of methanol (2x, v/v) twice. The three extracts were combined and evaporated to dryness under a nitrogen stream by an N-Evap evaporator at room temperature. The residues were reconstituted with an appropriate volume of methanol:water (1:1, v/v) and centrifuged at ca. 10000 g at 4 ℃ for 10 min. The supernatant was subjected to HPLC radio-profiling.
Four pooled human urine samples (subject 03 ~ 06) were pooled from 0 to 432 h based on equal volume ratios from the individual patients across time intervals. In addition, three pooled urine samples (0–48, 48–120 and 360–432 h) (subjects 03–06) were prepared by pooling human urine samples across subjects and time points. Portion of the pooled urine sample was evaporated to a small volume under a nitrogen stream and extracted with methanol (3x, v/v) followed by centrifuged at ca. 10000 g at 4 ℃ for 10 min. The supernatant was reconstituted with an appropriate volume of methanol:water (1:1, v/v) and centrifuged at ca. 10000 g at 4 ℃ for 10 min. The supernatant was subjected to HPLC radio-profiling.
Four human fecal samples (0–432 h) were prepared by pooling feces from individual subjects (Subjects 03–06). In addition, three pooled human fecal samples (0–48, 48–120 and 360–432 h) were prepared by pooling feces samples across subjects and time points. The pooled fecal homogenate was extracted with methanol (3x, v/v) and the mixture was vortexed, and centrifuged at ca. 10000 g at 4 ℃ for 10 min. The supernatant was then separated from the PES, which was suspended with water, followed by addition of methanol twice. The three extracts were combined and evaporated to dryness under a nitrogen stream by an N-Evap evaporator at room temperature. The residues were reconstituted with an appropriate volume of methanol:water (1:1, v/v) and centrifuged at ca. 10000 g at 4 ℃ for 10 min prior to analysis.
HPLC coupled with radioactivity monitor (LC-RAM) was used to isolate and quantitate [^14C] anlotinib and its metabolites. The plasma and fecal extracts as well as urine supernatants were subjected to HPLC separation, fractionation, and eluent collection. The radioactivity in each fraction was monitored by solid scintillation counting using a Packard TopCount® NXT™ Microplate Counter. The radio-profiles were then reconstructed using ARC® Convert software. The peak area of each radioactivity peak/region was integrated using ARC® Evaluation software, and the percent distribution of each peak/region was calculated (%TRA for plasma or %Dose for urine and feces).
Metabolites were characterized and/or identified by LC–MS/MS in conjunction with on-line radioactivity detection. Structures of metabolites were proposed by interpretation of the mass spectral fragmentation pattern, as well as chromatographic behaviors and metabolic pathways.

SMILES | Drug-related component in human plasma (radio-profile)
COc1cc2c(Oc3ccc4[nH]c(C)cc4c3F)ccnc2cc1O [M18] | detected
COc1cc2c(Oc3ccc4[nH]c(C)cc4c3F)ccnc2cc1OCC1(O)CC1 [M28] | detected
COc1cc2c(Oc3ccc4[nH]c(C(=O)O)cc4c3F)ccnc2cc1OCC1(N)CC1 [M30] | major drug-related component
